This note sets out measurements from ChEMBL document CHEMBL1201862, “PubChem BioAssay data set” (2004).

The target of test [1] is Cytochrome P450 2D6 (Homo sapiens, UniProt P10635).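 Also: CYP2D6 member of a cytochrome P450 panel assay.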
For test [2], the target named is T1, Heat shock factor protein 1 (Mus musculus, UniProt P38532).
T1 sequence (P38532 whole entry): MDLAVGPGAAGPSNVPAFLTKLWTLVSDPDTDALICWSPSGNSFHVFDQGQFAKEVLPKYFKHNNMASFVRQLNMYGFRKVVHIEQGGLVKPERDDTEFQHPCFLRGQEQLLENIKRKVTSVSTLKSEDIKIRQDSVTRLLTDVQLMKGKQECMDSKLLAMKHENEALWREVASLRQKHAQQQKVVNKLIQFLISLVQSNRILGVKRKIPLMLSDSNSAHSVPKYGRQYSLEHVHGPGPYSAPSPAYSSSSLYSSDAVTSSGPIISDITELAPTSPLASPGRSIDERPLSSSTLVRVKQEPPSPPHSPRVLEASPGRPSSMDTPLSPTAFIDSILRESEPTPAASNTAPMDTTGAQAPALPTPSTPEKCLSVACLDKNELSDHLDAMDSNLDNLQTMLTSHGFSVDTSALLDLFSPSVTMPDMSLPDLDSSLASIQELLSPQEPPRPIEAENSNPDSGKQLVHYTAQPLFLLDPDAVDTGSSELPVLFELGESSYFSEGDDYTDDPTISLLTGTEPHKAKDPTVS
The experiment in a line: decrease of HSF1-responsive luciferase luminescence – cell-based, NIH3T3, dose retest, confirmation (AID 2382).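 Also: NIH3T3 fibroblasts with HSF1-driven luciferase reporter stressed by proteasome inhibitor MG132; luminescence from HSF1-driven luciferase expression after 8 hours of MG132 stress.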 In kind it is functional.

Test [3] concerns Streptococcus. The experiment in a line: GAS UMAA2166 growth inhibition – luminescence, BacTiterGlo, counter-screen for streptokinase expression inhibitor project, dose response (AID 1915).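 Also: potency for reduction of bacterial viability or growth.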 Format: functional, organism-based. For orientation: Counterscreens check selectivity or assay interference.
Test [4] deals with Streptococcus sp. 'group A'. The experiment in a line: Streptococcus pyogenes SK(-)GAS viability under kanamycin – luminescence, BacTiterGlo, confirmation, counter-screen for streptokinase expression inhibitor project, dose response (AID 1900). In kind it is functional, organism-based.
Test [5] addresses T2, Streptokinase A (Streptococcus pyogenes serotype M1, UniProt P10520).
T2 sequence (P10520 whole entry): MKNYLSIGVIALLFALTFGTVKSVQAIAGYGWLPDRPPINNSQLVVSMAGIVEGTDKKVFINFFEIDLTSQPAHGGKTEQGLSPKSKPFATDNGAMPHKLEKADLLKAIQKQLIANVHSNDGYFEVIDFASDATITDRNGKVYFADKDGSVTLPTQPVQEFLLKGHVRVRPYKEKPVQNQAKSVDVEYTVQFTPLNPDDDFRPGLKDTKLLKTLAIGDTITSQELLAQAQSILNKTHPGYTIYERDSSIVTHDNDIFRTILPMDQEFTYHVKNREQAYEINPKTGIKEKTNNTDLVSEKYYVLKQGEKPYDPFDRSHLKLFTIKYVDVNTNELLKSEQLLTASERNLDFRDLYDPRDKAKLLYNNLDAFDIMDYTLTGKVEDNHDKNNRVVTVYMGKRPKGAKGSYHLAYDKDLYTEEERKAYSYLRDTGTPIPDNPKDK
The experiment in a line: viability-normalized secreted streptokinase activity reduction – plasminogen activation absorbance, OD405, dose response (AID 1914).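 Also: secreted streptokinase activity via plasminogen activation per viability signal from cell pellet.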 Format: functional, Streptococcus pyogenes M1 GAS.

The nature of test [6]: NIH3T3 cell viability loss – ATP luminescence, mouse fibroblasts, counter-screen, dose response (AID 2010).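 Also: cells exposed to compound for about 90 hours before reading.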 Format: functional, cell-based.
A short description of test [7]: Trypanosoma cruzi growth suppression in host cells – NIH3T3 host cells, beta-gal luminescence, confirmation (AID 2044).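 Also: intracellular parasites grown in NIH/3T3 mouse fibroblasts as host cells; luminescent beta-galactosidase reporter signal from transgenic T. cruzi replicating inside host cells; inhibitors lower the luminescence signal.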 In kind it is functional, cell-based.
Test [8] has as its system INS1. Nature of the test: INS-1E survival protection against cytokine death – cell-based, luminescence, retest, dose response (AID 449756).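 Also: cell death triggered by IL-1 beta plus TNF-alpha plus IFN-gamma mixture; protective hits raise ATP signal compared with cytokine alone wells.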 Format: functional. Conditions: Rattus norvegicus.
Test [9] in a line: Luminescence Cell-Based Dose Retest to Confirm Inhibitors of Cancer Stem Cells. [Related pubchem assays (depositor defined):AID2717, AID2721]. In kind it is functional. To be noted: Homo sapiens.
Test [10] is described as follows: Luminescence Cell-Based Dose Response HTS to Identify Inhibitors of 5'UTR Stem-Loop Driven Prion Protein mRNA Translation in H4 Neuroglioblastoma Cells. [Related pubchem assays: 1827 (Project Summary), 1813 (Primary HTS)]. Format: functional.
Test [11] can be described thus: luciferase reporter signal suppression in cells – H4 neuroglioma cells, luminescence, dose response (AID 1990). Format: functional, cell-based. Background: A reporter such as luciferase makes a cellular process visible.

Calls of active or inactive are those of the source. Rule as the data show it, for most assays here: actives have a measured EC50 and inactives only a lower limit.

Chain of Cytochrome P450 2D6 (P10635 whole entry): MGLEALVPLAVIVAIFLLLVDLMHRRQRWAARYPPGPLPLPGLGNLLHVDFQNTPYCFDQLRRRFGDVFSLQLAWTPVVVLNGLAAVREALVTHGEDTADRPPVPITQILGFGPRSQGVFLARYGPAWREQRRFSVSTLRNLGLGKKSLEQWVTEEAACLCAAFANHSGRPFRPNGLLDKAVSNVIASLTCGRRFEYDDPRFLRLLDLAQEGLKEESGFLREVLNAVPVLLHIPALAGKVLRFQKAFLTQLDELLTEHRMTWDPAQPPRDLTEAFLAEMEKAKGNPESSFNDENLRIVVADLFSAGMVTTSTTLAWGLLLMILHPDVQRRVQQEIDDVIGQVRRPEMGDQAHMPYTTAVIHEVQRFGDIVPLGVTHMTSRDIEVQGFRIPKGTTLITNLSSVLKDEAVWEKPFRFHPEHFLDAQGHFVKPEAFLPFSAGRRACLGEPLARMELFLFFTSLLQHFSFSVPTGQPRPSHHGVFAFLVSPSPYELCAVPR

What is called AC50 is the concentration at which the activity in the assay is half-maximal. `c1csc(CN2CC3(CCNCC3)C2)n1`: the AC50 in test [1] is 39.8 µM (inconclusive).

As usually defined, the EC50 is the concentration that produces a half-maximal response. `COc1cc(NC(=O)CN(C)S(=O)(=O)c2ccc(-c3ccc(O)nn3)s2)cc(OC)c1`: the EC50 in test [2] is on record as > 195 µM (not active).

`Cc1ccc(C(=O)N2CCOCC2)cc1Cl`: the EC50 in [3], in [4] and in [5] was > 150 µM (not active) throughout.

As for `C/C(=N\Nc1nc(C(C)(C)C)cs1)c1ccccc1`, the results for the EC50 in test [6] and in [7] were > 30 µM (not active) and 0.673 µM (active), respectively.

As for `C[N+]1(C)[C@@H]2CC[C@H]1CC(OC(=O)c1c[nH]c3ccccc13)C2` (stereo not given in full), in test [1], the AC50 was 31.6 µM (inconclusive).

With `O=C(Nc1cccnc1)c1ccc([N+](=O)[O-])s1`, the AC50 in test [8] is 7.27 µM (active).

Regarding `CCN(CCCNC(=O)CCCOc1cc(=O)n(C)c2ccccc12)Cc1ccccc1`, the values for the EC50 in test [6] and in test [7] were > 60 µM (not active) and 0.281 µM (active), respectively.

For the molecule `Cc1ccc(CSCCNS(=O)(=O)c2ccc([N+](=O)[O-])cc2)cc1`, the EC50 in test [6] was > 60 µM (not active); in test [7], 0.939 µM (active).

Take `CCOC(=O)c1cccc(-[n+]2c(-c3ccccc3)cc(-c3ccccc3)cc2-c2ccccc2)c1.[O-][Cl+3]([O-])([O-])[O-]`: the AC50 in test [8] was 2.68 µM (active).

Turning to `Cc1ccc(O)c(C(=O)CC(=O)c2ccc(C(C)(C)C)cc2)c1`, the EC50 was 3.66 µM (active) in test [3] and 1.63 µM (active) in test [4].

Take `COc1ccc(S(=O)(=O)NCC(c2cccnc2)N2CCN(Cc3ccccc3)CC2)cc1C` (stereo not given): the values for the concentration giving a half-maximal response (EC50) in test [6] and in test [7] were > 60 µM (not active) and 0.678 µM (active), respectively.

Turning to `CCOc1ccc(CN2CCC(n3nccc3NC(=O)c3ccccc3OC)CC2)cc1`, the EC50 in [6] is > 60 µM (not active); in test [7], 0.997 µM (active).

Regarding `COc1cccc(/C=N/NC(=O)CNC(=O)c2cccs2)c1O`, the AC50 in test [8] was 7.39 µM (active).

As for `Fc1ccc(Nc2nc(N/N=C/c3ccco3)nc(N3CCCCC3)n2)cc1`, the concentration giving a half-maximal response (EC50) in test [6] was 9.91 µM (active); in [7], 2.88 µM (active).

Take `CCCCCCSc1cc(-c2nc3cnccn3c2NCc2ccccc2)ccc1OC`: the EC50 in test [3] was 12.9 µM (active); in test [4], 4.3 µM (active); in test [5], 16.7 µM (active).

Take `O=C(c1ccco1)N(CCCN1CCOCC1)c1nc(-c2ccc(F)cc2)cs1`: the EC50 was 30.5 µM (active) in [6] and 1.28 µM (active) in test [7].

For the molecule `Cc1cccc(NC(=O)c2ccc([N+](=O)[O-])s2)c1C`, the AC50 in test [8] was 12 µM (active). Also, the EC50 is > 60 µM (not active) in test [6] and 0.691 µM (active) in test [7].

As to `CCOC(=O)N1CCN(C(=O)C(CC)n2nc(C)c3sc4ccccc4c3c2=O)CC1` (stereo not given), the AC50 in test [1] was 39.8 µM (inconclusive).

For `COc1cccc(Nc2nc(-c3ccccc3)nc3ccccc23)c1`, the AC50 in test [9] is 5.53 µM (active).

Turning to `Cc1c(CCOC(=O)c2cc([N+](=O)[O-])cc([N+](=O)[O-])c2)sc[n+]1CC(=O)c1ccccc1`, the EC50 in [6] was > 60 µM (not active); in test [7] it was 1.97 µM (active).

As for `O=C(NCC(c1cccnc1)N1CCN(c2ccccc2F)CC1)Oc1ccccc1` (stereo not given), the EC50 was > 60 µM (not active) in test [6] and 0.401 µM (active) in [7].

With `O=C(CSc1nnc(SCc2cccc3ccccc23)s1)c1ccc2c(c1)OCO2`, in test [1], the AC50 is 7.94 µM (inconclusive).

Regarding `COc1ccc(O)c(C(=O)c2cnc3nc4ccccc4n3c2)c1`, the AC50 in test [8] was 1.23 µM (active).

`COc1ccc(C(=O)N/N=C(\C)Cn2cnc([N+](=O)[O-])n2)cc1`: the figures for the EC50 in [6] and in test [7] were > 60 µM (not active) and 1.03 µM (active), respectively.

With `COC(=O)c1[nH]c2cc(C)ccc2c1NC(=O)CN1CCCc2ccccc21`, the EC50 in [6] was > 60 µM (not active); in test [7] it was 0.99 µM (active).

Take `CCOC(=O)c1ccc(NC(=O)c2[nH]cnc2C(=O)NCCCCNC(=O)c2nc[nH]c2C(=O)Nc2ccc(C(=O)OCC)cc2)cc1`: the AC50 in test [9] was 2.51 µM (active).

As for `Cc1cc(C)c2cc(CN(CCO)C(=O)Nc3ccc(Cl)cc3)c(O)nc2c1`, the 50% effective concentration (EC50) in [10] is 33.3 µM (active); in test [11], 15.8 µM (active).

In the case of `CC(=O)NCc1ccc(C(=O)CCl)s1`, the EC50 in [6] was 3.9 µM (active); in test [7], 3.21 µM (active).

On to `O=C(/C=C/c1ccc(F)cc1)c1cc(Br)ccc1O`, for which the AC50 in test [9] was 13.1 µM (active).

With `CCC1Oc2ccc(C)cc2N(CC(=O)N(Cc2cccnc2)Cc2ccc(C)o2)C1=O` (stereo not given), the EC50 was > 30 µM (not active) in test [6] and 0.166 µM (active) in test [7].

Consider `CC(C)(C)c1ccc(Oc2cccc(C3CC(=O)C(C4NCCc5ccccc54)C(=O)C3n3cncn3)c2)cc1` (stereo not given), for which the results for the EC50 in test [3], in test [4] and in [5] were > 150 µM (not active), 71.1 µM (active) and > 150 µM (not active), respectively.

With `COC(=O)c1ccccc1NC(=O)c1cc2nc(C3CC3)cc(C(F)(F)F)n2n1`, in test [1], the AC50 is 3.16 µM (inconclusive).

On to `CC1CCN(c2nc(-c3ccc(F)cc3)cc(C(F)(F)F)n2)CC1`, for which the values for the EC50 in test [3], in [4] and in test [5] were 17.5 µM (active), 11.6 µM (active) and 4.61 µM (active), respectively.

For `CN1C(=O)C(=Cc2ccc(N3CCCCCC3)o2)C(=O)N(C)C1=S`, the AC50 in [1] was 20 µM (inconclusive).

As for `COc1ccc(NC(=O)c2ccc3c(c2)NC(=O)CS3)cc1S(=O)(=O)Nc1ccc(Br)cc1`, the values for the EC50 in test [3], in test [4] and in [5] were 26.3 µM (active), 4.17 µM (active) and > 150 µM (not active), respectively.

In the case of `CC(C)C(=O)N1CCN(c2ccccc2NC(=O)COc2ccc(C3CCCCC3)cc2)CC1`, the EC50 in test [3] was > 150 µM (not active); in test [4] it was 15.8 µM (active); in test [5], 18.9 µM (inconclusive).

For `CCCCn1c(N)c(N(CCC(C)C)C(=O)c2ccc([N+](=O)[O-])s2)c(=O)[nH]c1=O`, the EC50 in test [6] is > 60 µM (not active); in test [7], 0.997 µM (active).

As to `Cc1ccccc1NC(S)=NCC1CCN(C(C)c2ccccc2)C1` (stereo not given), the values for the EC50 in test [6] and in test [7] were > 60 µM (not active) and 1.1 µM (active), respectively.

For the molecule `C[C@@H](N)[C@@H](C)Cc1ccccc1`, the AC50 in test [1] was 3.98 µM (inconclusive).

As for `O=C(c1ccccc1)c1ccc(OCCCN2CCCC2)cc1`, the half-maximal effective concentration (EC50) in test [6] is > 60 µM (not active); in test [7] it was 0.889 µM (active).

Regarding `CSc1nnc2ccc(-c3ccc(C)cc3)nn12`, the EC50 in [3], in test [4] and in test [5] was > 150 µM (not active) throughout.

Take `CC(/C=C/c1ccc(N(C)C)cc1)=N\NC1=NC(=O)CC(C(=O)Nc2ccccc2)S1` (stereo not given): the EC50 in test [3] is 9.04 µM (active); in test [4], 2.94 µM (active); in test [5], > 150 µM (not active).

With `CCN1CCN(C(S)=Nc2sc(C)c(-c3ccccc3)c2C(=O)OC)CC1`, the AC50 in test [9] was 3.65 µM (active).

`CCCNC(=O)CSc1nc(-c2cccs2)cc(C(F)(F)F)n1`: the AC50 in test [1] was 3.16 µM (inconclusive).

For `COc1ccccc1CN1CN(S(=O)(=O)c2ccccc2)c2nc3ccccc3nc21`, the EC50 is > 150 µM (not active) in test [3], 47.6 µM (active) in [4] and 55.1 µM (active) in test [5].

With `O=C(/C=C/c1ccc(F)cc1)c1ccccc1Br`, the AC50 in [9] is 3.87 µM (active).

Take `CC(C)(C)NC(=O)CSC(=Nc1ccc(F)cc1)NC#N`: in test [1], the AC50 is 25.1 µM (inconclusive).
